Like-named read-outs stand apart in the source and are kept apart here.
Tests used:
EGFR = molecular target: T1, EGFR (Homo sapiens, UniProt P00533); test: Enzyme inhibitory activity on EGFR (time resolution fluorescence, biotinylated poly-Glu-Tyr substrate); type: biochemical
T1 construct: purchased Carna Biosciences, Inc; host or cells: insect cell expression system
How it was run: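 Insect-cell-expressed EGFR phosphorylated biotinylated poly-Glu-Tyr (4:1) for 60 min at room temperature in TBS with MgCl2, MnCl2, Na3VO4 and BSA. Enzyme 250 ng/ml, substrate 3.125 μg/ml and ATP 125 μM as working solutions. EDTA stop; Eu anti-phosphotyrosine/streptavidin-XL time-resolved fluorescence read; 10-point 4-fold dilutions.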

HER2 = molecular target: T2, HER2 (Homo sapiens, UniProt P04626); test: Enzyme inhibitory activity on HER2 (time resolution fluorescence, biotinylated poly-Glu-Tyr substrate); type: biochemical
T2 construct: purchased Carna Biosciences, Inc; host or cells: insect cell expression system
How it was run: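 Insect-cell-expressed HER2 (1000 ng/ml working stock) with biotinylated poly-Glu-Tyr (4:1; 3.125 μg/ml stock) and ATP (290 μM solution) in TBS with MgCl2, MnCl2, Na3VO4 and BSA, 60 min at room temperature. 10-point 4-fold dilutions from a 1 mM top solution. Phosphotyrosine detected by TR-FRET with Eu-antibody and streptavidin-XL.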

BT-474 = test: In vitro cell proliferation inhibition, WST assay; type: cell-based, human; settings: BT-474 cells, cultured for 3 days, read-out: BT-474 (nM) proliferation inhibitory activity (IC50 value)
Experimental: Test of In Vitro Cell Proliferation Inhibition of Test Compound
As a human-derived cancer cell strain, BT-474 was used. Cells were all cultured in a 37° C., 5% CO2 incubator in a medium in which 10% bovine fetal serum (ICN) and 50 units ml penicillin/60 μg/ml streptomycin solution (GIBCO) were added to Dulbecco's Modified Essential Medium (DMEM, Nacalai Tesque, Inc).

[1] = enzyme reaction at room temperature for 60 minutes
[2] = EGFR purified from insect cell expression system, ATP solution 125 μM, room temperature, 60 minutes
[3] = HER2 purified from insect cell expression system, ATP solution 290 μM, room temperature, 60 minutes

T2 sequence (P04626 23-1255): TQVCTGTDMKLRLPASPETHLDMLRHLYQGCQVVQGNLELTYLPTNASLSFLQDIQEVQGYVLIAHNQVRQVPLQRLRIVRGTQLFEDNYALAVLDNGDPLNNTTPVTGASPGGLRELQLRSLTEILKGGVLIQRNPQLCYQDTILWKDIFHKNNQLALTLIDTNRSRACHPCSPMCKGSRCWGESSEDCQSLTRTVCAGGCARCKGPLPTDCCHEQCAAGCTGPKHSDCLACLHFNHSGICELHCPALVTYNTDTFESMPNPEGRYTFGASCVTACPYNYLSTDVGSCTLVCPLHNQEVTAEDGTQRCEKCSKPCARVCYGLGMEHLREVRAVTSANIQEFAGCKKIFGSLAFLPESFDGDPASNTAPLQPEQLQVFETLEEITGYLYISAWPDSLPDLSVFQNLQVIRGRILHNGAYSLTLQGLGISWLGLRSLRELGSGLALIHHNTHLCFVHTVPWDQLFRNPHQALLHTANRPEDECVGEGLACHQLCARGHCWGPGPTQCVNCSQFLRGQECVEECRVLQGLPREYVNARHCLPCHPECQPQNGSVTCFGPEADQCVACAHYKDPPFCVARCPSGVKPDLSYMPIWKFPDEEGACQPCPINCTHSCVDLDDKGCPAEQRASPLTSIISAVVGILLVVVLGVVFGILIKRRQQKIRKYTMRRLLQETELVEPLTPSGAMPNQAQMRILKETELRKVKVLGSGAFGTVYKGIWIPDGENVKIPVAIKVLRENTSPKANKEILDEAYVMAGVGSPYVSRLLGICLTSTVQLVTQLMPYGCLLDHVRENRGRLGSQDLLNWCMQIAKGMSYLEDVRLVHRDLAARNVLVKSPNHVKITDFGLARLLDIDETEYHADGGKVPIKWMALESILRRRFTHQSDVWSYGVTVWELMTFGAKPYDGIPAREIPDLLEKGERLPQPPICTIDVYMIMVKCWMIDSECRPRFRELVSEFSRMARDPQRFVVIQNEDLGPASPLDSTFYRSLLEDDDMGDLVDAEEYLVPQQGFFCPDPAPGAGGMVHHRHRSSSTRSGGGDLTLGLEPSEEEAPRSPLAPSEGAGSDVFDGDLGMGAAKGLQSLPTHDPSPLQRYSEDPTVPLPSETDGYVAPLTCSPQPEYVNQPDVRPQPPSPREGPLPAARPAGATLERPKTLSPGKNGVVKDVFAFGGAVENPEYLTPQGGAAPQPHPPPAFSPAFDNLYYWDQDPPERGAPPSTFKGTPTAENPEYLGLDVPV
T1 sequence (P00533 25-1210): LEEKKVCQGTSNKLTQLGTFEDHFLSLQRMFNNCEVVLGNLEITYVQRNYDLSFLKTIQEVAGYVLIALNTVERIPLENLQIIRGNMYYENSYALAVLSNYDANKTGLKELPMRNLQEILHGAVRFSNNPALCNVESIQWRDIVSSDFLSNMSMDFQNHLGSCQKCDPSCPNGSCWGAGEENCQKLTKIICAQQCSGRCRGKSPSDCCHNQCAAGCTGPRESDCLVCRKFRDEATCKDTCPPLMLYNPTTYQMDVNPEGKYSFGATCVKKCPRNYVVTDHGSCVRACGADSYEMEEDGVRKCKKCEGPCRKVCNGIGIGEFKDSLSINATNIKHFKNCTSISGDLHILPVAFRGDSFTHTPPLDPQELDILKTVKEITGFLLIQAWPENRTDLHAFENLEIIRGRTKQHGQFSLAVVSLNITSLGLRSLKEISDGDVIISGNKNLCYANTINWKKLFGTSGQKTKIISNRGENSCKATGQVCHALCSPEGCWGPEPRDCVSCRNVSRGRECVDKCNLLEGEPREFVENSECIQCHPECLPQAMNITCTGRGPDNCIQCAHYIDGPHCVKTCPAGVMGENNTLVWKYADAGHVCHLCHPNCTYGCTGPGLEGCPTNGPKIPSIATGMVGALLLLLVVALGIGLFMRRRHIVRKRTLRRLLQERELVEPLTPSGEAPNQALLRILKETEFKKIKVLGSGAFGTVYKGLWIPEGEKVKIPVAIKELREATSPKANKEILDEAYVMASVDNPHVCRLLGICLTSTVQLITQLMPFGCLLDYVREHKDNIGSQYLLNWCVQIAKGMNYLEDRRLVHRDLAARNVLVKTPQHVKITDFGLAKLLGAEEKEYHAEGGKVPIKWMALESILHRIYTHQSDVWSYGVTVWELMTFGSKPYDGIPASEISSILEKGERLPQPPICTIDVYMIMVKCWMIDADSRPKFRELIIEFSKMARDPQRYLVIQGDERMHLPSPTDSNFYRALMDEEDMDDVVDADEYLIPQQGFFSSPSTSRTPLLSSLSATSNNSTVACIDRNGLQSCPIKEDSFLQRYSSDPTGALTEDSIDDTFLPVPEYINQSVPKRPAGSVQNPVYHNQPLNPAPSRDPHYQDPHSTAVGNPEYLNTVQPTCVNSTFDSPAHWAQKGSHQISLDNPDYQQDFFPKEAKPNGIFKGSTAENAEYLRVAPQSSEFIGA

Structure (SMILES)	IC50 (EGFR; [1])	IC50 (HER2; [1])	IC50 (BT-474; Homo sapiens, BT-474, 72 h)	IC50 (EGFR; [2])	IC50 (HER2; [3])	IC50 (BT-474)
CC#C/C(=N\OCCNCCNS(C)(=O)=O)c1ccc2ncnc(Nc3ccc4c(cnn4Cc4cccc(F)c4)c3)c2c1 [VIII-185]	6.8 nM	12.5 nM	12 nM	–	–	–
CC#C/C(=N\OC[C@@H]1COCCN1)c1ccc2ncnc(Nc3ccc4c(cnn4Cc4cccc(F)c4)c3)c2c1 [VIII-197]	9 nM	21 nM	14 nM	–	–	–
CC#C/C(=N\OC[C@@H](N)CO)c1ccc2ncnc(Nc3ccc(OCc4cccc(F)c4)c(Cl)c3)c2c1 [VIII-41]	–	–	–	12 nM	15 nM	14 nM
CC#CC(=NOCCNCC)c1ccc2ncnc(Nc3ccc(OCc4cccc(F)c4)c(Cl)c3)c2c1 [VIII-35]	–	–	24 nM	11 nM	25 nM	–
CC#C/C(=N\OCCNC1CCOCC1)c1ccc2ncnc(Nc3ccc(OCc4ccccn4)c(Cl)c3)c2c1 [VIII-141]	10 nM	7.9 nM	46 nM	–	–	–
CC#C/C(=N\OCCN1CCN(C)CC1)c1ccc2ncnc(Nc3ccc(OCc4cccc(F)c4)c(Cl)c3)c2c1 [VIII-96]	–	–	–	20 nM	20 nM	30 nM
Fc1cccc(COc2ccc(Nc3ncnc4ccc(/C=N/OCCN5CCCC5)cc34)cc2Cl)c1 [Compound V-6]	–	–	110 nM	6.5 nM	3.6 nM	–
CC#C/C(=N\OCC(=O)NCCO)c1ccc2ncnc(Nc3ccc(OCc4cccc(F)c4)c(Cl)c3)c2c1 [VIII-224]	122 nM	118 nM	1.2 nM	–	–	–
CC#C/C(=N\OC[C@H]1CNC[C@@H](C)O1)c1ccc2ncnc(Nc3ccc(OCc4cccc(F)c4)c(Cl)c3)c2c1 [VIII-116]	–	–	–	37 nM	25 nM	50 nM
CC#C/C(=N\OCCN1CCCC(O)C1)c1ccc2ncnc(Nc3ccc(OCc4ccccn4)c(Cl)c3)c2c1 (stereo not drawn) [VIII-128]	15 nM	17 nM	37 nM	–	–	–
CC#C/C(=N\OCCNC)c1ccc2ncnc(Nc3ccc(COc4cccc(F)c4)c(Cl)c3)c2c1 [VIII-211]	23 nM	18 nM	16 nM	–	–	–
CC#C/C(=N\OC[C@H]1COCCN1)c1ccc2ncnc(Nc3ccc(OCc4cccc(F)c4)c(Cl)c3)c2c1 [VIII-102]	–	–	–	72 nM	121 nM	7 nM
CC#CC(=NOC1CNC(CO)C1)c1ccc2ncnc(Nc3ccc(OCc4cccc(F)c4)c(Cl)c3)c2c1 (stereo not drawn) [VIII-80]	–	–	–	23 nM	29 nM	35 nM
CC#CC(=NOCC1CNCCN1)c1ccc2ncnc(Nc3ccc(OCc4ccccn4)c(Cl)c3)c2c1 (stereo not drawn) [VIII-170]	5 nM	5.6 nM	19 nM	–	–	–
CC#C/C(=N\OC[C@H]1CNC[C@@H](C)O1)c1ccc2ncnc(Nc3ccc(OCc4ccccn4)c(Cl)c3)c2c1 [VIII-177]	7.3 nM	5.8 nM	79 nM	–	–	–
CC#C/C(=N\OCCNCCNS(C)(=O)=O)c1ccc2ncnc(Nc3ccc(OCc4cccc(F)c4)c(Cl)c3)c2c1 [VIII-51]	–	–	9 nM	45 nM	64 nM	–

Structure (SMILES)	IC50 (EGFR; [1])	IC50 (HER2; [1])	IC50 (BT-474; Homo sapiens, BT-474, 72 h)	IC50 (EGFR; [2])	IC50 (HER2; [3])	IC50 (BT-474)
CC#C/C(=N\OC[C@H]1CCCN1CC(=O)O)c1ccc2ncnc(Nc3ccc(OCc4cccc(F)c4)c(Cl)c3)c2c1 [VIII-88]	–	–	–	47 nM	56 nM	12 nM
CC#C/C(=N\OCC1COCCN1)c1ccc2ncnc(Nc3ccc(Oc4ccc(C)nc4)c(C)c3)c2c1 (stereo not drawn) [VIII-218]	76 nM	22 nM	41 nM	–	–	–
CC#C/C(=N\OCCN1CCC(NC(C)=O)CC1)c1ccc2ncnc(Nc3ccc(OCc4cccc(F)c4)c(Cl)c3)c2c1 [VIII-99]	–	–	24 nM	84 nM	84 nM	–
CC#C/C(=N\O[C@@H]1CN[C@H](CO)C1)c1ccc2ncnc(Nc3ccc(OCc4ccccn4)c(Cl)c3)c2c1 [VIII-155]	10 nM	8 nM	28 nM	–	–	–
CC#CC(=NOCCNC(=NC#N)NC)c1ccc2ncnc(Nc3ccc(OCc4cccc(F)c4)c(Cl)c3)c2c1 [VIII-58]	–	–	37 nM	207 nM	236 nM	–
CC#C/C(=N\OC[C@H]1CS(=O)(=O)CCN1)c1ccc2ncnc(Nc3ccc(OCc4cccc(F)c4)c(Cl)c3)c2c1 [VIII-118]	–	–	–	197 nM	223 nM	22 nM
CC#C/C(=N\OCCNC[C@@H]1CCCO1)c1ccc2ncnc(Nc3ccc(OCc4cccc(F)c4)c(Cl)c3)c2c1 [VIII-49]	–	–	–	28 nM	31 nM	28 nM
CC#C/C(=N\OC[C@H]1NCCO[C@@H]1C)c1ccc2ncnc(Nc3ccc(OCc4cccc(F)c4)c(Cl)c3)c2c1 [VIII-107]	–	–	–	150 nM	135 nM	23 nM
CC#C/C(=N\OC[C@@H]1CCCN1CCOC)c1ccc2ncnc(Nc3ccc(OCc4cccc(F)c4)c(Cl)c3)c2c1 [VIII-74]	–	–	28 nM	164 nM	150 nM	–
CC#C/C(=N\OCCNC[C@@H]1CCCO1)c1ccc2ncnc(Nc3ccc4c(cnn4Cc4cccc(F)c4)c3)c2c1 [VIII-189]	17 nM	27 nM	25 nM	–	–	–
CC#C/C(=N\OC[C@@H]1C[C@@H](O)CN1)c1ccc2ncnc(Nc3ccc(OCc4cccc(F)c4)c(Cl)c3)c2c1 [VIII-81]	–	–	8 nM	9.8 nM	17.7 nM	–
CNCCO/N=C(\C#CC1CC1)c1ccc2ncnc(Nc3ccc(OCc4cccc(F)c4)c(Cl)c3)c2c1 [VIII-120]	–	–	32 nM	33 nM	29 nM	–
CC#C/C(=N\OCC(=O)NCCOS(C)(=O)=O)c1ccc2ncnc(Nc3ccc(OCc4cccc(F)c4)c(Cl)c3)c2c1 [VIII-225]	47 nM	70 nM	7 nM	–	–	–
CC#C/C(=N\OCCNC[C@H](C)CO)c1ccc2ncnc(Nc3ccc(OCc4ccccn4)c(Cl)c3)c2c1 [VIII-140]	5.5 nM	4.3 nM	30 nM	–	–	–
CC#C/C(=N\OCCN1CCNC(=O)C1)c1ccc2ncnc(Nc3ccc4c(cnn4Cc4cccc(F)c4)c3)c2c1 [VIII-196]	11 nM	20 nM	28 nM	–	–	–

Results, then the compound that gave them:

IC50 (EGFR; [1])	IC50 (HER2; [1])	IC50 (BT-474; Homo sapiens, BT-474, 72 h)	IC50 (EGFR; [2])	IC50 (HER2; [3])	IC50 (BT-474)	Structure (SMILES)
26 nM	20 nM	45 nM	–	–	–	CC#C/C(=N\OCC1COCCN1)c1ccc2ncnc(Nc3ccc(S(=O)(=O)c4ccccc4)cc3)c2c1 (stereo not drawn) [VIII-219]
–	–	–	56 nM	129 nM	12 nM	CC#C/C(=N\OC[C@@H]1COCCN1)c1ccc2ncnc(Nc3ccc(OCc4cccc(F)c4)c(Cl)c3)c2c1 [VIII-101]
7.1 nM	8.3 nM	10 nM	–	–	–	CC#C/C(=N\OCCNC)c1ccc2ncnc(Nc3ccc4c(cnn4Cc4cccc(F)c4)c3)c2c1 [VIII-183]
–	–	–	11 nM	13 nM	8 nM	CC#C/C(=N\OC[C@H]1CN(CCO)CCN1)c1ccc2ncnc(Nc3ccc(OCc4cccc(F)c4)c(Cl)c3)c2c1 [VIII-112]
–	–	27 nM	19 nM	15 nM	–	CC#C/C(=N\OCCNCCCN1CCCC1=O)c1ccc2ncnc(Nc3ccc(OCc4cccc(F)c4)c(Cl)c3)c2c1 [VIII-50]
8.4 nM	7.1 nM	43 nM	–	–	–	CC#C/C(=N\OCCNCCCN1CCCC1=O)c1ccc2ncnc(Nc3ccc(OCc4ccccn4)c(Cl)c3)c2c1 [VIII-133]
16 nM	19 nM	15 nM	–	–	–	CC#C/C(=N\OC[C@H]1CCCN1CCO)c1ccc2ncnc(Nc3ccc(OCc4ccccn4)c(Cl)c3)c2c1 [VIII-159]
4.1 nM	4 nM	25 nM	–	–	–	CC#C/C(=N\OC[C@H]1CCCN1)c1ccc2ncnc(Nc3ccc(OCc4ccccn4)c(Cl)c3)c2c1 [VIII-157]
17 nM	42 nM	33 nM	–	–	–	CC#C/C(=N\OCCNC[C@@H]1COC(=O)N1)c1ccc2ncnc(Nc3ccc4c(cnn4Cc4cccc(F)c4)c3)c2c1 [VIII-191]
–	–	–	32 nM	33 nM	11 nM	CC#C/C(=N\OC[C@H]1CCCN1)c1ccc2ncnc(Nc3ccc(OCc4cccc(F)c4)c(Cl)c3)c2c1 [VIII-85]
3.5 nM	3.6 nM	24 nM	–	–	–	CC#C/C(=N\OCCNCCO)c1ccc2ncnc(Nc3ccc(OCc4ccccn4)c(Cl)c3)c2c1 [VIII-143]
37 nM	35 nM	–	–	–	61 nM	CCCC#CC(=NOCCNC)c1ccc2ncnc(Nc3ccc(OCc4cccc(F)c4)c(Cl)c3)c2c1 [VIII-127]
14 nM	14 nM	18 nM	–	–	–	CC#C/C(=N\OCCNCCS(C)(=O)=O)c1ccc2ncnc(Nc3ccc(OCc4ccccn4)c(Cl)c3)c2c1 [VIII-132]
20 nM	19 nM	47 nM	–	–	–	CC#C/C(=N\OCCN1CC[C@@H](OC(N)=O)C1)c1ccc2ncnc(Nc3ccc(OCc4ccccn4)c(Cl)c3)c2c1 [VIII-151]
10 nM	9 nM	24 nM	–	–	–	CC#C/C(=N\OCCNCCOC(N)=O)c1ccc2ncnc(Nc3ccc4c(cnn4Cc4cccc(F)c4)c3)c2c1 [VIII-187]

From patent publication US8202879B2, “Quinazoline derivatives having tyrosine kinase inhibitory activity” (Shionogi & Co., Ltd., priority 2005, dated 2012)
